US20120251628A1, “COMPOSITIONS AND METHODS FOR TREATMENT OF CANCER” (priority 2011, published 2012)

Experiments:
[1] = system: CT26 (mouse colon cancer); assay: DCE-MRI of tumor vascularity (Kep) in CT26 tumor mice; format: in vivo
Experimental: To determine whether the occurrence of central necrosis of tumors 24 hours after treatment was caused by the reduction of vascularity, DCE-MRI was used before the medication was administered and 24 hours after administration.
Inoculate CT26 (mouse colon cancer) 2×10^6 cell subcutaneously into mice on the upper parts of their thighs.
After checking the tumor size between 6 to 10 mm, acquire images through MRI.
Image Acquisition: Use a magnetic resonance imaging device (i.e., 3 Tesla Intera human clinical scanner; Philips medical systems) and a mouse coil with an inner diameter of 4 cm to get images. Acquire images before the drug is administered and those 24 hours after that for two days.
MR Pulse Sequence as follows: Dynamic Contrast enhanced MRI scan: FOV (mm)=50×35; RFOV (%)=71; Matrix scan=112; reconstruction=224; TR/TE (ms)=12/4.0; slice thickness=1 mm; slice number=11; dynamic scans=60.
i. Conduct an experiment to the subjects under anesthesia by using an inhalation anesthetic mixing 1.5% isoflurane in 100% oxygen at a flow rate of 1 L/min.
ii. Cannulate an intravenous injection line through the tail vein to inject a contrast agent.
iii. Use Gd-DTPA (Magnevist, Schering, Germany, 281 mg/kg) as a contrast agent and get pre-contrast images before injecting the contrast agent and post-contrast images after injecting it.
iv. After getting the images, inject KML001 (10 mg/kg) and Arsenic trioxide (7.5 mg/kg) intraperitoneally.
v. Get images through a dynamic scan again 24 hours after injection.
Accordingly, the groups of animals with which the DCE-MRI data was obtained are as follows: Group of animals treated with ATO: n=4, Group of animals treated with Saline: n=4 and Group of animals treated with KML001: n=6.
As the low data in MRI was mapped from each result of the DCE-MRI to the positive control group of animals treated with ATO, the negative control group of animals treated with saline and the experimental group of animals treated with KML001, Kep values important for tumor vascularity were calculated. Kep (rate constant) is the back diffusion rate constant from interstitial space to vascular space, reflecting leakage of tumor vessels, i.e., a measurement of vascularity.

[2] = system: acute promyelocytic leukemia (APL); conditions: patients to which arsenic trioxide was administered; cited from earlier work

## arsenic trioxide [ATO, reference compound]
[1]; 24 hours after intraperitoneal injection vs pre-treatment, KML001 10 mg/kg, ATO 7.5 mg/kg
  Kep values (back diffusion rate constant, tumor vascularity): significantly reduced
[1]; 24 hours after treatment
  contrast enhancement of the tumors in the MRI: decreased
[2]
  patients showing therapeutic effects without acute toxicity: more than 80%
